Measurements taken from patent US12440544B2, “Cross-reactive epitope for multiple sclerosis” (The Board of Trustees of the Leland Stanford Junior …, priority 2019, dated 2025).

Columns and labels:
Format in all cases: cell-based, human
[1] = test system: MS-1 TCR cell line; test: T cell stimulation assay (CD69), MS1-TCR cell line co-cultured with peptide-loaded T2-DR15 antigen presenting cells; details: for self-peptide identified for TCR2/MS-1 TCR: predicted with positional mutation/refined substitution matrix data, used for MS-1 TCR stimulation
Description: We generated MS1-TCR cell line, co-cultured with T2-DR15 antigen presenting cell line loaded with yeast library generated peptides and were examined for activation. CD69 was used as a marker for T cell activation. […] We used yeast library enrichment data to predict actual peptides/antigens (self or non-self) for MS-1 CD4 TCRs.
TCRα, β constructs were cloned into a lentiviral construct. For TCR expression, alpha and beta TCR lentiviral constructs were transfected into 293× cells separately. The virus was harvested after 72 hr of transfection and transduced into Jurkat αβ^−/− or SKW αβ^−/− cells. SKW or Jurkat cells were enriched for highest expression of TCRαβ by using a Miltenyi anti-APC selection (Miltenyi 130-090-855).
T cell stimulation assays were performed as previously described. All the T cell peptide stimulation experiments were done in 96 well round bottom plates with a 200 μl total volume. T2, K562 cells or BMDCs were pulsed with 10-100 ug of the peptides for 45 minutes, washed once and plated (10,000 cells/well). Cell lines expressing TCRs (100, 000 cells/well) were co-cultured with APCs for 18 hr. At the end of stimulation, cells were harvested, washed, and stained with TCRβ, human CD3, and CD69 and analyzed on LSR II (Becton Dickinson) for activation.

[2] = test system: Adeno-TCR9; test: T cell stimulation of adeno-tetramer sorted CD4 TCR cell line, cross reactivity with MBP 85-99 peptide; details: adeno specific TCR cell line stimulated with Adeno peptide and MBP
Description: (§1) To detect/determine adeno specific T cells directly from MS patients (n=9) and healthy (n=9), we generated pMHC tetramers, enriched, and enumerated CD4's that are specific to the adeno peptide. We were able to detect adeno specific CD4 T cells, which were higher in number among MS patients compared to HC. We also single cell sorted these adeno specific CD4 T cells, sequenced their TCRs, and generated TCR cell lines (adeno specific TCRs).
(§2) TCR cell lines from adeno-tetramer sorted CD4 TCRs were tested for cross reactivity with MBP 85-99 peptide. We also tested MS-1 TCR for cross reactivity with MBP. Adeno specific TCRs were stimulated with Adeno peptide and MBP. TCR2/ms-1 TCR and some of the adeno-TCRs (Adeno-TCR1 and 9) cross react with MBP peptide. Serum from MS (n=28) and HC (n=10) was tested for adeno virus titers in the serum. A subset of MS sera had higher adeno virus compared to HC sera. CD3+ T cells from 8 MS and 5 HCs were sorted, and TCR and RNA-seq performed using 10× platform. Additionally, for 4 out of 8 MS patients, T cells from cerebrospinal fluid were sequenced. […]
(§3) T cell stimulation assays were performed as previously described. […] At the end of stimulation, cells were harvested, washed, and stained with TCRβ, human CD3, and CD69 and analyzed on LSR II (Becton Dickinson) for activation.

[3] = test system: Adeno-TCR1; test: as above; details: adeno specific TCR cell line stimulated with Adeno peptide and MBP
Description: as §1, §2, §3

ANYGKARSWYLK [SEQ ID NO:2]
self-peptide identified for TCR2/MS-1 TCR [1]: identified for TCR2/MS-1 TCR

ATFTSYRSWYLA [Adeno]
stimulation of MS-1 TCR cell line (CD69 as marker for T cell activation) ([1]; co-cultured with T2-DR15 antigen presenting cell line loaded with peptide): stimulated MS-1 TCR cell line

DKGQQYRNWFLK [SEQ ID NO:4]
self-peptide identified for TCR2/MS-1 TCR [1]: identified for TCR2/MS-1 TCR

ENPVVHFFKNIVTPR [MBP peptide]
cross reactivity of TCR2/MS-1 TCR with MBP peptide ([1]; TCR cell line stimulated with Adeno peptide and MBP): cross react
cross reactivity of Adeno-TCR9 with MBP peptide [2]: cross react
cross reactivity of Adeno-TCR1 with MBP peptide [3]: cross react

IDRHMYHSYLK [SEQ ID NO:3]
self-peptide identified for TCR2/MS-1 TCR [1]: identified for TCR2/MS-1 TCR
